Literature values in article PMC5082644 (Molecular Vision, 2016).

System: complement activation / C5b-9n (MAC) deposition in human fetal RPE cell cultures
Details: among peptides with polar dipeptides added at the N-terminus

Substance: Ac-RSI[CV(meW)QDWGAHRC]T-NH2 (disulfide)
- Efficacy in the human RPE cell-based assay: most efficacious
